This is an account of results in EP3871665B1, “INHIBITORS OF RNA-BINDING PROTEINS AS ANTI-CANCER DRUGS” (priority 2020, dated 2021).

Structures are written as SMILES.

Data set [1] can be described thus: Drug-likeness assessment / solubility in the assays. Format: physicochemical.
The subject of data set [2] is ES-2 IGF2BP1-KO cells re-expressing GFP-IGF2BP1. Kind of data set: 2D growth / proliferation (cell confluence, IncuCyte S3), cells re-expressing wild type IGF2BP1. Format: cell-based. The procedure: (§1) Statistical significance was analyzed by logrank test. […] Modified cysteines are highlighted in bold and upper position. […] Right: Local atomic fluctuations around cysteine residues. […] (A-C) RNA-dependent protein-protein association assay. […] EV (1) indicates mock-transfected controls. Representative Western (A) and Northern (C) blots are shown. P, pulldown; I, input. […] A representative Western blot analysis is shown in (C). […] Six mice were analyzed per condition. Error bars indicate standard deviation. […] Error bars indicate standard deviation of three analyses. […] DMSO-treated cells were used for comparisons. […] (*) p < 0.05, (**) p < 0.01, (***) p < 0.001. […] Data represent the mean ± SD (n = 6). […] (**) p < 0.01.
To probe if the identified residues are druggable targets, a search for chemical probes with exquisite chemo- and regioselectivity to cysteine residues was performed and their ability to target IGF2BP1's Cys253 and Cys336 was tested, whilst functioning as inhibitors. […] Both probes are known to covalently modify cysteine residues in a highly site-specific manner. […] These probes were then used in ES-2 IGF2BP1 KO cells, re-expressing either the wild type version of IGF2BP1 or the C253/336A mutant. The initial assay was set to observe if the probes influence the 2D growth, determined here as cell density, of ES-2 cells in a IGF2BP1-Cys253/336-dependent manner. IC50 values were determined by measuring the cell viability or cell confluence of cells incubated with increasing concentrations of J2 and J5.

The subject of data set [3] is ES-2 IGF2BP1-KO cells re-expressing GFP-IGF2BP1C253/336A. Kind of data set: 2D growth / proliferation (cell confluence, IncuCyte S3), cells re-expressing C253/336A mutant. Format: cell-based. How it is done: as §1
(§2) To probe if the identified residues are druggable targets, a search for chemical probes with exquisite chemo- and regioselectivity to cysteine residues was performed and their ability to target IGF2BP1's Cys253 and Cys336 was tested, whilst functioning as inhibitors. […] Both probes are known to covalently modify cysteine residues in a highly site-specific manner. […] The initial assay was set to observe if the probes influence the 2D growth, determined here as cell density, of ES-2 cells in a IGF2BP1-Cys253/336-dependent manner. IC50 values were determined by measuring the cell viability or cell confluence of cells incubated with increasing concentrations of J2 and J5.

Data set [4] deals with tumors bearing ES-2 cells re-expressing the C253/336A mutant. Kind of data set: Xenograft tumor growth, ES-2 cells re-expressing C253/336A mutant. It counts as in vivo, female SCID mice. Conditions: 0.1 mg/kg daily intraperitoneally.
Procedure: (§3) (A) Representative images of tumor cell spheroids (top panel), tumor cell invasion in matrigel (middle panel), and spheroid growth in anoikis resistance assays (lower panel) observed for ES-2 IGF2BP1-KO cells re-expressing GFP (1), wild type GFP-IGF2BP1 (2) or GFP- IGF2BP1-C253/336A (3). (B) Quantification of 2 independent experiments (n=9) shown in (A): spheroid viability (left panel), invasion index (middle panel) and anoikis resistance (right panel). Statistical significance was calculated by unpaired t-test as indicated. […] Tumor formation was determined for ES-2 IGF2BP1-KO cells re-expressing wild type IGF2BP1 (GFP-I1, 1) or GFP-IGF2BP1-C253/336A (GFP-C253/336A, 2). The tumor volume was measured at indicated time points post-injection by a caliper, (A). The final volume (B) and weight (C) of removed tumors were determined and are shown by boxplots. Representative images of macroscopic tumors acquired by non-invasive infrared imaging in mice (D) and excised tumors 17d post-injection (E). Six mice were analyzed per condition. Error bars indicate standard deviation. Statistical significance was calculated by unpaired t test with Welch's correction or ordinary one-way ANOVA with Tukey's multiple comparison test. […] 2000 cells either from ES-2 IGF2BP1-KO cells re-expressing GFP-IGF2BP1 or GFP-IGF2BP1C253/336A were seeded in a 96 well plate.
Data set [5] concerns xenografts bearing ES-2 cells re-expressing the wild-type IGF2BP1 (GFP-IGF2BP1). The following applies: 0.1 mg/kg daily intraperitoneally; GFP-IGF2BP1 tumors.
Procedure: as §3
The test system of data set [6] is ES-2 IGF2BP1-KO cells re-expressing the wild type GFP-IGF2BP1. Kind of data set: Cell viability (CellTiter Glo), cells re-expressing wild type IGF2BP1. Format: cell-based. The procedure:
as §1
To probe if the identified residues are druggable targets, a search for chemical probes with exquisite chemo- and regioselectivity to cysteine residues was performed and their ability to target IGF2BP1's Cys253 and Cys336 was tested, whilst functioning as inhibitors. […] The initial assay was set to observe if the probes influence the 2D growth, determined here as cell density, of ES-2 cells in a IGF2BP1-Cys253/336-dependent manner. IC50 values were determined by measuring the cell viability or cell confluence of cells incubated with increasing concentrations of J2 and J5.
Background: In ATP-based viability assays light output follows the ATP content of the culture.

Data set [7] concerns panel of cancer cell lines. As to the kind of experiment: Cell proliferation (IncuCyte S3 confluence) in a panel of cancer cell lines. Format: cell-based. The following applies: 72h.
The test system of data set [8] is ES-2 IGF2BP1-KO cells re-expressing GFP-IGF2BP1C253/336A. As to the kind of experiment: Spheroid Matrigel invasion assay, cells re-expressing C253/336A mutant. It counts as cell-based. The following applies: up to 6 µM; 24h post-treatment.
Procedure: as §3
The test system of data set [9] is ES-2 IGF2BP1-KO cells re-expressing the GFP-IGF2BP1C253/336A mutant. Kind of data set: Cell viability (CellTiter Glo), cells re-expressing C253/336A mutant. Conditions: cell viability 72h, read-out: IC50C253/336A. It counts as cell-based. How it is done: as §1, §2
For data set [10], the target named is T1, IGF2BP1 (Homo sapiens, UniProt Q9NZI8).
T1 construct: made in house
As to the kind of experiment: Site-specific protein modification (Cys-to-Dha conversion), LC-MS/MS readout. It counts as biochemical. How it is done:
as §1
A multiple-Cys-containing RNA-binding protein with a recognized role in cancer is selected, for example and not limited to, the Insulin-like growth factor 2 mRNA binding protein 1 (IGF2BP1). It is then expressed in bacteria (not limited to), purified and submitted to site-specific protein modification reactions in vitro using cysteine-directed probes (Cys-to-Dha conversion), for example and not limited to, the compound 2,5 dibromohexanediamide (1). The reactions are performed in mild conditions, PBS buffer pH 8.0 for 1 h at 37∘C, using increasing equivalents of 1. The resulting reaction is then purified with a spin column and submitted to trypsin digestion followed by LC-MS/MS using standard protocols. The identification of Dha-modified peptides is performed by adding the corresponding mass shift of 33.9878 m/z (Dha) as a post-translational modification in the global search for modifications. The Dha conversion of specific cysteine residues is located within the primary sequence of the protein of interest (POI) to uncover preferentially modified cysteine residues.

T1 sequence (Q9NZI8 whole entry): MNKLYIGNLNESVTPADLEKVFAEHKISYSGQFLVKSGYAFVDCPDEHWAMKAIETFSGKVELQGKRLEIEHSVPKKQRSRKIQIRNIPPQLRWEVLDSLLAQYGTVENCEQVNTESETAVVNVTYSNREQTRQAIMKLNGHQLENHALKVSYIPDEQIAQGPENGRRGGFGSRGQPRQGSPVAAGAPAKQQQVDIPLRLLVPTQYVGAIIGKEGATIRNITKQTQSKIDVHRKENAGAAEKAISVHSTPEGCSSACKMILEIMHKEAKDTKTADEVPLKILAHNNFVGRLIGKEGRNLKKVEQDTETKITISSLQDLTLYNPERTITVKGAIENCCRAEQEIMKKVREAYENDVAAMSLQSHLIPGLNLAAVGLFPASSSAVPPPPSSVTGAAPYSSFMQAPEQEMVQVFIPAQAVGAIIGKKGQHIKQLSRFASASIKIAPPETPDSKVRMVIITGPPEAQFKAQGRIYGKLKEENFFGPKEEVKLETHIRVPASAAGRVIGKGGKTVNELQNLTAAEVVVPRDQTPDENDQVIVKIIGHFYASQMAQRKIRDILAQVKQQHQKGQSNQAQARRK

As to `O=C(/C=C/C(=O)c1ccccc1)NCCNc1ccc([N+](=O)[O-])c2nonc12` [J2, (E)-N-(2-((7-nitrobenzo[c][1,2,5]oxadiazol-4-yl)amino)ethyl)-4-oxo-4-phenylbut-2-enamide], the solubility entry in data set [1] is given as “solubility problems”. The “growth of ES-2 cells” value in [2] (1µM, cells re-expressing the wild type protein) was “strong impairment”. In addition, the IC50 in [2] (cells expressing wild type IGF2BP1, confluence at 72h, DMSO = 100% growth) was determined as 840 nM; in data set [3] (Homo sapiens, ES-2 cells expressing the C253/336A mutant, confluence at 72h), 2200 nM. Further, the selective cytoreductive effect in data set [2] (wild type vs C253/336A mutant cells) is 2 fold. Moreover, the growth of cells entry in data set [3] (1µM, cells expressing the C253/336A mutant) is on record as “no substantial impact”.
Consider `CCNC(=O)/C=C/C(=O)c1ccccc1` [J5, (E)-N-ethyl-4-oxo-4-phenylbut-2-enamide], for which the “anti-tumor effect (tumor volume, tumor mass)” value in data set [4] is given as “absolutely no effect”; in [5] it was “strong anti-tumor effect”. Further, the solubility result in [1] was “much higher solubility”. In addition, the IC50 in data set [6] (cell viability 72h, CellTiter Glo) was 970 nM; in [9] it was 1750 nM. For the same compound, the “selectivity to ES-2 cells re-expressing the wild type IGF2BP1” value in data set [6] (wild type vs C253/336A) is 1.8 fold. Further, the “potency in a panel of cancer cell lines” value in data set [7] was “potency as anti-cancer drug in all of them”. For the same compound, the invasion entry in data set [8] is on record as “unchallenged invasion”.
In the case of `NC(=O)C(Br)CCC(Br)C(N)=O` (stereo not drawn) [compound 1, 2,5 dibromohexanediamide], in data set [10] (PBS buffer pH 8.0, 1 h, 37°C), the “equivalents at which Cys253 was modified” value was 200 eq and the “equivalents at which Cys336 was modified” value was 300 eq. The “equivalents at which Cys336 was modified, in some reactions” value in [10] (in some reactions) was 200 eq. Also, in [10] (in vitro), the “equivalents at which almost all cysteines (exception Cys110) were modified” value is on record as “above 500 eq”.
